PubChem BioAssay AID1259407 (Chemical Carcinogenesis Research Information System (CCRIS), 2018)
Calls of active or inactive are those of the source. No rule for the calls is given here.

System: CCRIS mutagenicity, Ames/micronucleus/aberration tests
Experiment: CCRIS mutagenicity studies

Cc1ccc(N)cc1
mutagenic call (Test System: AMES SALMONELLA TYPHIMURIUM, Strain/Indicator: TA97, Metabolic Activation: HAMSTER, LIVER, S-9, AROCLOR 1254 (10%), Method: PREINCUBATION): inactive; negative
mutagenic call (Test System: AMES SALMONELLA TYPHIMURIUM, Strain/Indicator: TA97, Metabolic Activation: HAMSTER, LIVER, S-9, AROCLOR 1254 (30%), Method: PREINCUBATION): inactive; negative
mutagenic call (Test System: AMES SALMONELLA TYPHIMURIUM, Strain/Indicator: TA97, Metabolic Activation: NONE, Method: PREINCUBATION): inactive; negative
mutagenic call (Test System: AMES SALMONELLA TYPHIMURIUM, Strain/Indicator: TA97, Metabolic Activation: RAT, LIVER, S-9, AROCLOR 1254 (10%), Method: PREINCUBATION): inactive; negative
mutagenic call (Test System: AMES SALMONELLA TYPHIMURIUM, Strain/Indicator: TA97, Metabolic Activation: RAT, LIVER, S-9, AROCLOR 1254 (30%), Method: PREINCUBATION): inactive; negative
mutagenic call (Test System: AMES SALMONELLA TYPHIMURIUM, Strain/Indicator: TA98, Metabolic Activation: HAMSTER, LIVER, S-9, AROCLOR 1254 (10%), Method: PREINCUBATION): inactive; negative
mutagenic call (Test System: AMES SALMONELLA TYPHIMURIUM, Strain/Indicator: TA98, Metabolic Activation: HAMSTER, LIVER, S-9, AROCLOR 1254 (30%), Method: PREINCUBATION): inactive; negative
mutagenic call (Test System: AMES SALMONELLA TYPHIMURIUM, Strain/Indicator: TA98, Metabolic Activation: HAMSTER, LIVER, S-9, SODIUM PHENOBARBITAL AND 5,6-BENZOFLAVONE, Method: PREINCUBATION): inactive; negative
mutagenic call (Test System: AMES SALMONELLA TYPHIMURIUM, Strain/Indicator: TA98, Metabolic Activation: NONE, Method: PREINCUBATION): inactive; negative
mutagenic call (Test System: AMES SALMONELLA TYPHIMURIUM, Strain/Indicator: TA98, Metabolic Activation: RAT LIVER S-9, PHENOBARBITAL AND BETA-NAPHTHOFLAVONE, Method: PREINCUBATION): inactive; negative
mutagenic call (Test System: AMES SALMONELLA TYPHIMURIUM, Strain/Indicator: TA98, Metabolic Activation: RAT, LIVER, S-9, AROCLOR 1254 (10%), Method: PREINCUBATION): inactive; negative
mutagenic call (Test System: AMES SALMONELLA TYPHIMURIUM, Strain/Indicator: TA98, Metabolic Activation: RAT, LIVER, S-9, AROCLOR 1254 (30%), Method: PREINCUBATION): inactive; negative
mutagenic call (Test System: AMES SALMONELLA TYPHIMURIUM, Strain/Indicator: TA100, Metabolic Activation: HAMSTER, LIVER, S-9, AROCLOR 1254 (10%), Method: PREINCUBATION): inactive; negative
mutagenic call (Test System: AMES SALMONELLA TYPHIMURIUM, Strain/Indicator: TA100, Metabolic Activation: HAMSTER, LIVER, S-9, AROCLOR 1254 (30%), Method: PREINCUBATION): active; positive
mutagenic call (Test System: AMES SALMONELLA TYPHIMURIUM, Strain/Indicator: TA100, Metabolic Activation: HAMSTER, LIVER, S-9, SODIUM PHENOBARBITAL AND 5,6-BENZOFLAVONE, Method: PREINCUBATION): inactive; negative
mutagenic call (Test System: AMES SALMONELLA TYPHIMURIUM, Strain/Indicator: TA100, Metabolic Activation: NONE, Method: PREINCUBATION): inactive; negative
mutagenic call (Test System: AMES SALMONELLA TYPHIMURIUM, Strain/Indicator: TA100, Metabolic Activation: RAT LIVER S-9, PHENOBARBITAL AND BETA-NAPHTHOFLAVONE, Method: PREINCUBATION): inactive; negative
mutagenic call (Test System: AMES SALMONELLA TYPHIMURIUM, Strain/Indicator: TA100, Metabolic Activation: RAT, LIVER, S-9, AROCLOR 1254 (10%), Method: PREINCUBATION): inactive; negative
mutagenic call (Test System: AMES SALMONELLA TYPHIMURIUM, Strain/Indicator: TA100, Metabolic Activation: RAT, LIVER, S-9, AROCLOR 1254 (30%), Method: PREINCUBATION): inactive; negative
mutagenic call (Test System: AMES SALMONELLA TYPHIMURIUM, Strain/Indicator: TA102, Metabolic Activation: HAMSTER, LIVER, S-9, SODIUM PHENOBARBITAL AND 5,6-BENZOFLAVONE, Method: PREINCUBATION): inactive; negative
mutagenic call (Test System: AMES SALMONELLA TYPHIMURIUM, Strain/Indicator: TA102, Metabolic Activation: NONE, Method: PREINCUBATION): inactive; negative
mutagenic call (Test System: AMES SALMONELLA TYPHIMURIUM, Strain/Indicator: TA104, Metabolic Activation: HAMSTER, LIVER, S-9, SODIUM PHENOBARBITAL AND 5,6-BENZOFLAVONE, Method: PREINCUBATION): inactive; negative
mutagenic call (Test System: AMES SALMONELLA TYPHIMURIUM, Strain/Indicator: TA104, Metabolic Activation: NONE, Method: PREINCUBATION): inactive; negative
mutagenic call (Test System: AMES SALMONELLA TYPHIMURIUM, Strain/Indicator: TA1535, Metabolic Activation: HAMSTER, LIVER, S-9, AROCLOR 1254 (10%), Method: PREINCUBATION): inactive; negative
mutagenic call (Test System: AMES SALMONELLA TYPHIMURIUM, Strain/Indicator: TA1535, Metabolic Activation: HAMSTER, LIVER, S-9, AROCLOR 1254 (30%), Method: PREINCUBATION): inactive; negative
mutagenic call (Test System: AMES SALMONELLA TYPHIMURIUM, Strain/Indicator: TA1535, Metabolic Activation: HAMSTER, LIVER, S-9, SODIUM PHENOBARBITAL AND 5,6-BENZOFLAVONE, Method: PREINCUBATION): inactive; negative
mutagenic call (Test System: AMES SALMONELLA TYPHIMURIUM, Strain/Indicator: TA1535, Metabolic Activation: NONE, Method: PREINCUBATION): inactive; negative
mutagenic call (Test System: AMES SALMONELLA TYPHIMURIUM, Strain/Indicator: TA1535, Metabolic Activation: RAT LIVER S-9, PHENOBARBITAL AND BETA-NAPHTHOFLAVONE, Method: PREINCUBATION): inactive; negative
mutagenic call (Test System: AMES SALMONELLA TYPHIMURIUM, Strain/Indicator: TA1535, Metabolic Activation: RAT, LIVER, S-9, AROCLOR 1254 (10%), Method: PREINCUBATION): inactive; negative
mutagenic call (Test System: AMES SALMONELLA TYPHIMURIUM, Strain/Indicator: TA1535, Metabolic Activation: RAT, LIVER, S-9, AROCLOR 1254 (30%), Method: PREINCUBATION): inactive; negative
mutagenic call (Test System: AMES SALMONELLA TYPHIMURIUM, Strain/Indicator: TA1537, Metabolic Activation: HAMSTER, LIVER, S-9, SODIUM PHENOBARBITAL AND 5,6-BENZOFLAVONE, Method: PREINCUBATION): inactive; negative
mutagenic call (Test System: AMES SALMONELLA TYPHIMURIUM, Strain/Indicator: TA1537, Metabolic Activation: NONE, Method: PREINCUBATION): inactive; negative
mutagenic call (Test System: AMES SALMONELLA TYPHIMURIUM, Strain/Indicator: TA1537, Metabolic Activation: RAT LIVER S-9, PHENOBARBITAL AND BETA-NAPHTHOFLAVONE, Method: PREINCUBATION): inactive; negative
mutagenic call (Test System: E. COLI, Strain/Indicator: WP2UVRA/PKM101, Metabolic Activation: HAMSTER, LIVER, S-9, SODIUM PHENOBARBITAL AND 5,6-BENZOFLAVONE, Method: PREINCUBATION): inactive; negative
mutagenic call (Test System: E. COLI, Strain/Indicator: WP2UVRA/PKM101, Metabolic Activation: NONE, Method: PREINCUBATION): inactive; negative
mutagenic call (Test System: E. COLI, Strain/Indicator: WP2UVRA, Metabolic Activation: HAMSTER, LIVER, S-9, SODIUM PHENOBARBITAL AND 5,6-BENZOFLAVONE, Method: PREINCUBATION): inactive; negative
mutagenic call (Test System: E. COLI, Strain/Indicator: WP2 UVRA, Metabolic Activation: NONE, Method: FLUCTUATION TEST): inactive; negative
mutagenic call (Test System: E. COLI, Strain/Indicator: WP2UVRA, Metabolic Activation: NONE, Method: PREINCUBATION): inactive; negative
mutagenic call (Test System: E.COLI, Strain/Indicator: WP2UVRA, Metabolic Activation: NONE, Method: PREINCUBATION): inactive; negative
mutagenic call (Test System: E.COLI, Strain/Indicator: WP2UVRA, Metabolic Activation: RAT LIVER S-9, PHENOBARBITAL AND BETA-NAPHTHOFLAVONE, Method: PREINCUBATION): inactive; negative

CC(=O)N(O[C@@H]1O[C@H](CO)[C@@H](O)[C@H](O)[C@H]1O)c1ccc(Oc2ccc(Cl)cc2)cc1
mutagenic call (Test System: AMES SALMONELLA TYPHIMURIUM, Strain/Indicator: TA100, Metabolic Activation: GUINEA PIG, LIVER, MICROSOMAL FRACTION, PCB): active; positive
mutagenic call (Test System: AMES SALMONELLA TYPHIMURIUM, Strain/Indicator: TA100, Metabolic Activation: GUINEA PIG, LIVER, S-9, PCB): active; positive
mutagenic call (Test System: AMES SALMONELLA TYPHIMURIUM, Strain/Indicator: TA100, Metabolic Activation: GUINEA PIG, LIVER, S-105, PCB): inactive; negative
